According to patent US20120264685A1 (priority 2009, published 2012):
Where a SMILES comes first, the peptide text is derived from it. [ ]: non-standard residue; d: D form. ξ: configuration not given here. ξαMeBip(2'-Et,4'-OMe) = CCc1cc(OC)ccc1-c1ccc(CC(C)(N)C(=O)O)cc1; ξαMe(hhPhe) = CC(N)(CCCc1ccccc1)C(=O)O; ξαMePhe(2-F) = CC(N)(Cc1ccccc1F)C(=O)O; ξhhPhe = NC(CCCc1ccccc1)C(=O)O; ξαMeD = CC(N)(CC(=O)O)C(=O)O; ξαMeP = CC1(C(=O)O)CCCN1; ξαMeS = CC(N)(CO)C(=O)O

Experiments:
[1] = Stability in simulated gastric fluid; type: in vitro ADME; details: 2 μM, 37° C.; for % degradation in 24 h when incubated with simulated gastric fluid: pH 1.5, 24 h; for half-life: simulated gi fluid, read-out: half-life (t1/2) in simulated gastric fluid
Experimental: (§1) Reactions were terminated by the addition of TFA/H2O ([…], 10% (v/v)). […] The column was equilibrated with TFA/H20, at a flow rate of 1 mL/min. […] The absorbance was monitored at 206 nm using UV detector and peaks were collected manually prior to ESI-MS analysis.

[2] = Stability in liver microsomes; type: in vitro ADME, human; details: 2 μM, 37° C.; for half-life: human, microsomes, read-out: half-life (t1/2) in liver microsomes
Experimental: as §1

[3] = Stability in simulated intestinal fluid; type: in vitro ADME; details: 2 μM, 37° C.; for % degradation in 24 h when incubated with simulated intestinal fluid: pH 7.5, 24 h; for half-life: simulated gi fluid, read-out: half-life (t1/2) in simulated intestinal fluid
Experimental: as §1

[4] = system: RIN5F (Rat Insulinoma) cells; test: In vitro glucose-dependent insulin secretion (RIN5F cell assay); type: cell-based; details: 16.7-mM glucose load, n = 3, mean ± S.D.
Experimental: RIN5F (Rat Insulinoma) cells were cultured in RPMI 1640 medium supplemented with sodium pyruvate (1 mM) HEPES and Glucose (4.5 g/L) in a humidified incubator (5% CO2), at 37° C. After trypsinization, RIN5F cells were seeded at a concentration of 0.2×10^6 cells per well, in 12 well plates. The cells were grown overnight to 80% confluence and insulin secretion experiments were performed as follows (Montrose-Rafizadeh C., et al., Mol. Cell. Endo. 1997, 130, 109.; Wang, X., et al., Endocrinology 2001, 5, 1820).
The cells were washed once with PBS solution followed by 40 min. incubation in fresh Krebs-Ringer Balanced Buffer containing NaCl (115 mmol/L), KCl (4.7 mmol/L), CaCl2 (1.28 mmol/L), MgSO4.7H2O (1.2 mmol/L), KH2PO4 (1.2 mmol/L), NaHCO3 (10 mmol/L) and HEPES (25 mmol/L), containing Glucose (1.1 mM) and B.S.A (0.5%), pH 7.4. The buffer was replaced after 40 min. and the cells were incubated (37° C.) with the test peptidomimetics, at different concentration, for 30 min., both in the presence (16.7 mM) and absence (0 mM) of glucose load. The supernatant was collected and the insulin amount was measured by ultra sensitive Rat insulin ELISA kit (Crystal Chem, IL). The protein was estimated in the supernatant using Bicinchoninic Acid kit, according to the manufacturer's protocol (Sigma Aldrich, MO). The total insulin content obtained in Pico-gram (pg) was divided with the total protein (μg) in order to normalize for differences in cell density between wells.

DPP IV enzyme = DPP IV enzyme (Homo sapiens, UniProt P27487); test: Stability against DPP IV enzyme; type: in vitro ADME; details: 2 μM, 37° C.; for half-life: read-out: half-life (t1/2) with DPP-IV enzyme
Experimental: (§2) Different peptidomimetics (final concentration 2 μM) were incubated with either DPP IV (1:25 mU) or pooled human plasma (7.5 μL) or simulated gastric fluid (pH 1.5; composition HCl, NaCl and Pepsin) or simulated intestinal fluid (pH 7.5) or human liver microsomes, for 0, 2, 4, 6, 12 and 24 h (37° C.; 50 mM triethanolamine-HCl buffer; pH 7.8). […] Reactions were terminated by the addition of TFA/H2O ([…], 10% (v/v)). The reaction products were then applied to a Vydac C18 analytical column (4.6×250-mm) and the major degradation fragment separated from intact peptidomimetic. The column was equilibrated with TFA/H20, at a flow rate of 1 mL/min. Using 0.1% (v/v) TFA in 70% acetonitrile/H2O, the concentration of acetonitrile in the eluting solvent was raised from 0% to 28% over 10 min and from 28% to 42% over 30 min. The absorbance was monitored at 206 nm using UV detector and peaks were collected manually prior to ESI-MS analysis. Area under the curve was measured for test peptidomimetics and their metabolites and percentage degradation were calculated at each time point over a period of 24 h.

[5] = Stability in human plasma; type: in vitro ADME; details: 2 μM, 37° C.; for half-life: human, plasma, read-out: half-life (t1/2) in human plasma
Experimental: as §2

male C57BL/6J mice = test: Acute single dose 120-min time-course experiment, in vivo glucose reduction; design: unit not given here; details: 2 μM/kg, oral, n = 8, Mean ± SEM
Experimental: Acute single dose 120-min time-course experiments were carried out in male C57BL/6J or db/db mice, age 8-12 weeks, bred in-house. The animals were housed in groups of 6 animals per cage, for a week, in order to habituate them to vivarium conditions (25+4° C., 60-65% relative humidity, 12:12 h light: dark cycle, with lights on at 7.30 am). All the animal experiments were carried out according to the internationally valid guidelines following approval by the ‘Zydus Research Center animal ethical committee’.
[…] On the day of experiment, food was withdrawn from all the cages, water was given ad-libitum and were kept for overnight fasting. Vehicle (normal saline)/test/standard compounds were administered intraperitoneally (i.p.) or orally, on a body weight basis. Soon after the 0 min. blood collection from each animal, the subsequent blood collections were done at 30, 60 and 120 or upto 240 min., via retro-orbital route, under light ether anesthesia (Chen, D., et al., Diabetes Obesity Metabolism, 2005, 7, 307. Kim, J. G. et al., Diabetes, 2003, 52, 751).
The blood samples were centrifuged and the separated serum was immediately subjected for the glucose estimation. The serum for insulin estimation was stored at −70° C. until used for the insulin estimation. The glucose estimation was carried out with DPEC-GOD/POD method (Ranbaxy Fine Chemicals Limited, Diagnostic division, India), using Spectramax-190, in 96-microwell plate reader (Molecular devices Corporation, Sunnyvale, Calif.). […] The AUC and BCAUC obtained from graphs were analyzed for one way ANOVA, followed by Dunnett's post test, using Graph Pad prism software. Furthermore, the insulin estimation was carried out using rat/mouse insulin ELISA kit (Linco research, Missouri USA).

DPP IV enzyme, sequence (P27487 whole entry, species assumed, the tested form may be a part): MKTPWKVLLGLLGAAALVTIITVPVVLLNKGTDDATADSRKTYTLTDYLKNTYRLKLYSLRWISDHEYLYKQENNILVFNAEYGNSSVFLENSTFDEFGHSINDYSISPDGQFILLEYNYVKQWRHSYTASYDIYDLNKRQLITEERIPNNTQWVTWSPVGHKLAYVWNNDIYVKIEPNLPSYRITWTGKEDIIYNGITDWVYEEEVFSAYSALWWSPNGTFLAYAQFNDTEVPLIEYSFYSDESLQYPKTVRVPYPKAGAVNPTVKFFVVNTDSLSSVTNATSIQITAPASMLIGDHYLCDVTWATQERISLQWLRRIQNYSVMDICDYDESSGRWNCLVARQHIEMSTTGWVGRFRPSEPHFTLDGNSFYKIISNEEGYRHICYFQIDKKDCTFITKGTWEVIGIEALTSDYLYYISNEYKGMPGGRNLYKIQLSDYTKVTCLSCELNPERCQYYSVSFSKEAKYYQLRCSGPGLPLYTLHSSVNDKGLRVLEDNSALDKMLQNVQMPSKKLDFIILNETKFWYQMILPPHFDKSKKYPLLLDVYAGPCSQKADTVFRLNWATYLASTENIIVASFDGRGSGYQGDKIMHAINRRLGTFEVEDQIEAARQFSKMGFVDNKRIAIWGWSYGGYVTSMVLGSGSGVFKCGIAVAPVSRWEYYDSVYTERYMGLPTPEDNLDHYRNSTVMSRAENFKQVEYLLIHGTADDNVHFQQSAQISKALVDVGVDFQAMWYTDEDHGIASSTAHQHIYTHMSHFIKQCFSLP

Structure (SMILES) | % degradation in 24 h when incubated with simulated gastric fluid [1] [%] | % degradation in 24 h when incubated with liver microsomes [2] [%] | half-life [2] [h] | % degradation in 24 h when incubated with simulated intestinal fluid [3] [%] | % degradation in 24 h when incubated with DPP-IV enzyme (DPP IV enzyme) [%] | half-life (DPP IV enzyme) [h] | % degradation in 24 h when incubated with human plasma [5] [%] | half-life [5] [h] | half-life ([1]; pH 1.5) [h] | half-life ([3]; pH 7.5) [h] | Insulin secretion ([4]; 0.1 nM test compd.) [pg/µg/h] | Insulin secretion ([4]; 1 nM test compd.) [pg/µg/h] | Insulin secretion ([4]; 10 nM test compd.) [pg/µg/h] | other results
CCc1cc(OC)ccc1-c1ccc(CC(C)(NC(=O)[C@H](CC(=O)O)NC(=O)[C@H](CO)NC(=O)[C@@H](NC(=O)[C@H](Cc2ccccc2)NC(=O)[C@@H](NC(=O)CNC(=O)[C@H](CCC(=O)O)NC(=O)C2(C)CCCN2C(=O)[C@H](Cc2c[nH]cn2)NC(=O)[C@@H](N)C(C)C)[C@@H](C)O)[C@@H](C)O)C(=O)NC(C)(CCCc2ccccc2)C(N)=O)cc1 (stereo partly shown) [compound 140] (H-VH[ξαMeP]EGTFTSD[ξαMeBip(2'-Et,4'-OMe)][ξαMe(hhPhe)]-NH2) | 100 | 100 | 0.5 | 100 | 86 | – | 70 | – | 0.5 | 0.5 | 16.6 ± 0.41 | 22.9 ± 0.32 | 36.7 ± 0.11 | half-life (t1/2) in human plasma [5]: (9) h
CCc1cc(OC)ccc1-c1ccc(CC(NC(=O)C(C)(CC(=O)O)NC(=O)C(C)(CO)NC(=O)[C@@H](NC(=O)C(C)(Cc2c(F)cccc2F)NC(=O)[C@@H](NC(=O)CNC(=O)[C@H](CCC(=O)O)NC(=O)C(C)(C)NC(=O)[C@H](Cc2c[nH]cn2)NC(=O)[C@@H](N)C(C)C)[C@@H](C)O)[C@@H](C)O)C(=O)NC(C)(CCCc2ccccc2)C(N)=O)cc1 (single isomer, unassigned) [Seq. ID. No. 129, VH-Aib-EGT-(αMe-2,6-diFPhe)-T-(αMe-Ser)-(αMe-Asp)-Bip(OMe)-(αMe-APPA)] | – | – | – | – | – | – | – | – | – | – | – | – | – | blood glucose level (in vivo glucose reduction) (male C57BL/6J mice; 0 min): 183 ± 2.4; blood glucose level (in vivo glucose reduction) (male C57BL/6J mice; 30 min): 116 ± 3.1; blood glucose level (in vivo glucose reduction) (male C57BL/6J mice; 60 min): 112 ± 4.8; blood glucose level (in vivo glucose reduction) (male C57BL/6J mice; 120 min): 110 ± 2.5

Now from value to compound, other results behind:

% degradation in 24 h when incubated with simulated gastric fluid [1] [%] | % degradation in 24 h when incubated with liver microsomes [2] [%] | half-life [2] [h] | % degradation in 24 h when incubated with simulated intestinal fluid [3] [%] | % degradation in 24 h when incubated with DPP-IV enzyme (DPP IV enzyme) [%] | half-life (DPP IV enzyme) [h] | % degradation in 24 h when incubated with human plasma [5] [%] | half-life [5] [h] | half-life ([1]; pH 1.5) [h] | half-life ([3]; pH 7.5) [h] | Structure (SMILES) | Insulin secretion ([4]; 0.1 nM test compd.) [pg/µg/h] | Insulin secretion ([4]; 1 nM test compd.) [pg/µg/h] | Insulin secretion ([4]; 10 nM test compd.) [pg/µg/h] | other results
14 | 80 | 1 | 43 | 76 | 9 | 78 | 8 | – | – | CCc1cc(OC)ccc1-c1ccc(CC(C)(NC(=O)C(C)(CC(=O)O)NC(=O)[C@H](CO)NC(=O)[C@@H](NC(=O)C(C)(Cc2ccccc2F)NC(=O)[C@@H](NC(=O)CNC(=O)[C@H](CCC(=O)O)NC(=O)[C@H](CO)NC(=O)[C@H](Cc2c[nH]cn2)NC(=O)[C@@H](N)C(C)C)[C@@H](C)O)[C@@H](C)O)C(=O)NC(CCCc2ccccc2)C(N)=O)cc1 (stereo partly shown) [compound 69] (H-VHSEGT[ξαMePhe(2-F)]TS[ξαMeD][ξαMeBip(2'-Et,4'-OMe)][ξhhPhe]-NH2) | 16.2 ± 0.13 | 22.4 ± 0.19 | 36.2 ± 0.09 | half-life (t1/2) in simulated gastric fluid ([1]; pH 1.5): (8) h; half-life (t1/2) in simulated intestinal fluid ([3]; pH 7.5): (6) h
00 | 31 | – | 00 | 00 | > 24 | 00 | > 24 | > 24 | > 24 | CCc1cc(OC)ccc1-c1ccc(CC(C)(NC(=O)[C@H](CC(=O)O)NC(=O)C(C)(CO)NC(=O)[C@@H](NC(=O)[C@H](Cc2ccccc2)NC(=O)[C@@H](NC(=O)CNC(=O)[C@H](CCC(=O)O)NC(=O)[C@H](C)NC(=O)[C@H](Cc2c[nH]cn2)NC(=O)[C@@H](N)C(C)C)[C@@H](C)O)[C@@H](C)O)C(=O)NC(CCCc2ccccc2)C(N)=O)cc1 (stereo partly shown) [compound 38] (H-VHAEGTFT[ξαMeS]D[ξαMeBip(2'-Et,4'-OMe)][ξhhPhe]-NH2) | 13.1 ± 0.11 | 14.9 ± 0.17 | 28.8 ± 0.44 | half-life (t1/2) in liver microsomes [2]: (5) h
43 | 84 | 2 | 00 | 00 | > 24 | 00 | > 24 | 4 | > 24 | CCc1cc(OC)ccc1-c1ccc(CC(C)(NC(=O)[C@H](CC(=O)O)NC(=O)[C@H](CO)NC(=O)[C@@H](NC(=O)[C@H](Cc2ccccc2)NC(=O)[C@@H](NC(=O)CNC(=O)[C@H](CCC(N)=O)NC(=O)[C@H](CO)NC(=O)[C@H](Cc2c[nH]cn2)NC(=O)[C@@H](NC(=O)[C@@H](N)C(C)C)C(C)C)[C@@H](C)O)[C@@H](C)O)C(=O)NC(CCCc2ccccc2)C(N)=O)cc1 (stereo partly shown) [compound 205] (H-VVHSQGTFTSD[ξαMeBip(2'-Et,4'-OMe)][ξhhPhe]-NH2) | 12.6 ± 0.25 | 15.3 ± 0.31 | 29.7 ± 0.48 | –
